Experiments:
Assay type in all cases: cell-based
Pyricalaria oryzae = test: In vitro mycelial/spore growth on potato-sucrose-agar, percent disease control (PO); conditions: read-out: % controlled, PO
Procedure, shortened: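 Compounds at 100 ppm and 50 ppm (10% acetone in water) mixed into potato-sucrose-agar, with Pyricalaria oryzae spotted centrally. After several days' incubation in a growth room, percent disease control derived from spore growth radii.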

Rhizoctonia solani = test: In vitro mycelial/spore growth on potato-sucrose-agar, percent disease control (RS, first column); conditions: read-out: % controlled, RS
Procedure, shortened: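 Compounds applied at 100 ppm and 50 ppm (10% acetone in water), mixed into potato-sucrose-agar with fungus spotted centrally. Incubated several days in growth room. Percent disease control derived from radii of spore growth.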

GC = test: In vitro mycelial/spore growth on potato-sucrose-agar, percent disease control (GC); conditions: read-out: % controlled, GC; for inhibition of growth at 50 ppm: GC
Procedure, shortened: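 Compounds dissolved in acetone (10% of final volume) and water at 100 and 50 ppm, mixed into potato-sucrose-agar. Fungus spotted at plate centre and incubated several days in a growth room; percent disease control derived from the radii of growth.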

Fusarium moniliforme = test: In vitro mycelial/spore growth on potato-sucrose-agar, percent disease control (FM); conditions: Fusarium verticillioides, Fusarium moniliforme, read-out: % controlled, FM
Procedure, shortened: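 Compounds at 100 and 50 ppm, in water containing 10% acetone, were mixed into potato-sucrose agar, and the fungus was spotted centrally. Plates were incubated several days in a growth room. Percent control was derived from growth radii.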

Botryosphaeri = test: In vitro mycelial/spore growth on potato-sucrose-agar, percent disease control (BD); conditions: read-out: % controlled, BD
Procedure, shortened: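 Compounds at 100 ppm and 50 ppm (10% acetone in water) mixed into potato-sucrose-agar, with Botryosphaeria spotted centrally and incubated for several days. Percent disease control calculated from growth radii.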

Rhizopus sp. = test: In vitro mycelial/spore growth on potato-sucrose-agar, percent disease control (RS, second column); conditions: read-out: % controlled, RS; for inhibition of growth at 50 ppm: Rhizopus sp.; for inhibition of growth at 200 ppm: Rhizopus
Procedure, shortened: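 Compound dissolved in acetone (10% of final volume) and water at 100 ppm and 50 ppm, mixed into potato-sucrose-agar. Rhizopus sp. spotted centrally and grown several days in a growth room; percent disease control derived from spore growth radii.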

Phytophthora capsisi = test: In vitro mycelial/spore growth on potato-sucrose-agar, percent disease control (PC); conditions: read-out: % controlled, PC
Procedure, shortened: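 Compounds at 100 ppm and 50 ppm (10% acetone in water) mixed into potato-sucrose-agar, with the fungus spotted at the centre and incubated for several days. Percent control derived from the radii of spore growth.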

Botritis cinerea = test: In vitro mycelial/spore growth on potato-sucrose-agar, percent disease control (BC); conditions: read-out: % controlled, BC
Procedure, shortened: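 Compounds dissolved in acetone (10% of final volume) then water to 100 and 50 ppm, mixed into potato-sucrose-agar, and B. cinerea spotted centrally. After several days in a growth room, percent disease control calculated from spore growth radii.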

SMILES: Clc1ccc([Si]2(Cn3cncn3)CCCCC2)cc1 [1-(4-chlorophenyl)-1-(1H-1,2,4-triazole-1-yl)methyl-1-silacyclohexane]
- inhibition of growth at 50 ppm (Pyricalaria oryzae): 100%
- inhibition of growth at 200 ppm (Pyricalaria oryzae): 100%
- inhibition of growth at 50 ppm (Rhizoctonia solani): 57%
- inhibition of growth at 200 ppm (Rhizoctonia solani): 69%
- inhibition of growth at 50 ppm (GC): 100%
- inhibition of growth at 200 ppm (GC): 100%
- inhibition of growth at 50 ppm (Fusarium moniliforme): 100%
- inhibition of growth at 200 ppm (Fusarium moniliforme): 100%
- inhibition of growth at 50 ppm (Botryosphaeri): 100%
- inhibition of growth at 200 ppm (Botryosphaeri): 100%
- inhibition of growth at 50 ppm (Rhizopus sp.): 50%
- inhibition of growth at 200 ppm (Rhizopus sp.): 92%
- inhibition of growth at 50 ppm (Phytophthora capsisi): 90%
- inhibition of growth at 200 ppm (Phytophthora capsisi): 100%
- inhibition of growth at 50 ppm (Botritis cinerea): 100%
- inhibition of growth at 200 ppm (Botritis cinerea): 100%

SMILES: CC(n1cncn1)[Si]1(c2ccc(F)cc2)CCCC1 (stereo not drawn) [1-(4-fluorophenyl)-1-[α-(1H-1,2,4-triazole-1-yl)ethyl]-1-silacyclopentane]
- inhibition of growth at 50 ppm (Pyricalaria oryzae): 100%
- inhibition of growth at 200 ppm (Pyricalaria oryzae): 100%
- inhibition of growth at 50 ppm (Rhizoctonia solani): 100%
- inhibition of growth at 200 ppm (Rhizoctonia solani): 100%
- inhibition of growth at 50 ppm (GC): 100%
- inhibition of growth at 200 ppm (GC): 100%
- inhibition of growth at 50 ppm (Fusarium moniliforme): 94%
- inhibition of growth at 200 ppm (Fusarium moniliforme): 100%
- inhibition of growth at 50 ppm (Botryosphaeri): 100%
- inhibition of growth at 200 ppm (Botryosphaeri): 100%
- inhibition of growth at 50 ppm (Rhizopus sp.): 59%
- inhibition of growth at 200 ppm (Rhizopus sp.): 75%
- inhibition of growth at 50 ppm (Phytophthora capsisi): 45%
- inhibition of growth at 200 ppm (Phytophthora capsisi): 100%
- inhibition of growth at 50 ppm (Botritis cinerea): 100%
- inhibition of growth at 200 ppm (Botritis cinerea): 100%

Reference: patent US5455356A, “Fungicidal 1-aryl-1-[α-(triazolyl)alkyl]-1-silacycloalkanes and their preparation methods” (priority 1993, dated 1995)
